Experiments:
Quadruplex DNA [1] = test: Stabilization of Trypanosoma brucei ERB1 G4 DNA assessed as change in melting temperature at 1 uM by FRET assay; assay type: nucleic-acid assay
Quadruplex DNA [2] = test: Stabilization of 22AG G4 DNA (unknown origin) assessed as change in melting temperature at 1 uM by FRET assay; assay type: nucleic-acid assay
[3] = Selectivity index, ratio of IC50 for human MRC5 to IC50 for Trypanosoma brucei measured after 72 hrs by alamar blue assay; assay type: toxicity; settings: MRC5 cells, read-out: Ratio IC50
[4] = Selectivity index, ratio of IC50 for human MRC5 to IC50 for Leishmania major measured after 72 hrs by MTT assay; assay type: toxicity; settings: MRC5 cells, read-out: Ratio IC50
Leishmania major = test: Antileishmanial activity against Leishmania major promastigotes MHOM/IL/80/Friedlin measured after 72 hrs by MTT assay; assay type: functional, organism-based
Trypanosoma brucei [5] = test: Antitrypanosomal activity against bloodstream-stage Trypanosoma brucei measured after 72 hrs by alamar blue assay; assay type: functional, organism-based
[6] = Cytotoxicity against human MRC5 cells incubated for 72 hrs by alamar blue staining based assay; assay type: toxicity, cell-based
Quadruplex DNA [7] = test: Stabilization of 22AG G4 DNA (unknown origin) assessed as change in melting temperature at 292 nm wavelength at 5 uM by CD spectroscopy; assay type: nucleic-acid assay
Quadruplex DNA [8] = test: Stabilization of 22AG G4 DNA (unknown origin) assessed as change in melting temperature at 265 nm wavelength at 5 uM by CD spectroscopy; assay type: nucleic-acid assay
Quadruplex DNA [9] = test: Stabilization of Trypanosoma brucei ERB1 G4 DNA assessed as change in melting temperature at 265 nm wavelength at 5 uM by CD spectroscopy; assay type: nucleic-acid assay
Quadruplex DNA [10] = test: Stabilization of Trypanosoma brucei ERB1 G4 DNA assessed as change in melting temperature at 292 nm wavelength at 5 uM by CD spectroscopy; assay type: nucleic-acid assay
[11] = Drug localization in Trypanosoma brucei at 5 uM after 120 mins by DAPI staining based fluorescence microscopy analysis; assay type: ADME; settings: 2 h
Trypanosoma brucei [12] = test: Trypanocidal activity against bloodstream-stage Trypanosoma brucei measured after 72 hrs by CellTiter-Glo luminescent assay; assay type: functional, organism-based
[13] = Drug uptake in Trypanosoma brucei at 4 to 37 degreeC at 5 uM after 30 to 120 mins by flow cytometry analysis; assay type: ADME; settings: time 30-120 min
[14] = Drug localization in Trypanosoma brucei kinetoplast at 37 degreeC at 5 uM after 30 mins by DAPI staining based fluorescence microscopy analysis; assay type: ADME, subcellular; settings: 0.5 h
[15] = Drug localization in human MRC5 cells nucleus at 37 degreeC at 5 uM after 30 mins by DAPI staining based fluorescence microscopy analysis; assay type: ADME, subcellular; settings: mrc5, 0.5 h
[16] = Drug localization in human MRC5 cells cytoplasm at 37 degreeC at 5 uM after 30 mins by DAPI staining based fluorescence microscopy analysis; assay type: ADME, subcellular; settings: mrc5, 0.5 h
[17] = Selectivity index, ratio of IC50 for human MRC5 to IC50 for Trypanosoma brucei measured after 72 hrs by CellTiter-Glo luminescent assay; assay type: toxicity; settings: MRC5 cells, read-out: Ratio IC50
[18] = Drug localization in Trypanosoma brucei nucleus at 37 degreeC at 5 uM after 30 mins by DAPI staining based fluorescence microscopy analysis; assay type: ADME, subcellular; settings: 0.5 h
[19] = Drug uptake in human MRC5 cells at 4 to 37 degreeC at 5 uM after 30 to 120 mins by flow cytometry analysis; assay type: ADME, cell-based; settings: mrc5, 5 µM, time 30-120 min
Trypanosoma brucei [20] = test: Antitrypanosomal activity against Trypanosoma brucei; assay type: functional, organism-based

SMILES | ΔTm (Quadruplex DNA [1]) [°C] | ΔTm (Quadruplex DNA [2]) [°C] | selectivity ratio at 72 h [3] | selectivity ratio at 72 h [4] | IC50 (Leishmania major) [µM] | IC50 (Trypanosoma brucei [5]) [nM] | IC50 at 72 h [6] [µM] | also measured
CN(C)CCCN1C(=O)c2ccc3c4c(c(NCc5cn(CCO[C@@H]6O[C@H](CO)[C@@H](O)[C@H](O)[C@H]6O)nn5)cc(c24)C1=O)C(=O)N(CCCN(C)C)C3=O | 8.6 | 2.7 | 41.8 | 1.3 |  |  |  | 
CN(C)CCCN1C(=O)c2ccc3c4c(c(N5CCCCC5)cc(c24)C1=O)C(=O)N(CCCN(C)C)C3=O | 7.4 | 2.3 | 81.3 | 15.3 | 0.17 | 32 | 2.6 | 
CN(C)CCCN1C(=O)c2cc(NCCOCCOCCNc3cc4c5c(c(Br)cc6c5c3C(=O)N(CCCCCC(=O)O)C6=O)C(=O)N(CCCCCC(=O)O)C4=O)c3c4c(cc(Br)c(c24)C1=O)C(=O)N(CCCN(C)C)C3=O | 7.1 | 3.8 | 25 | < 0.14 | > 100 | 550 | 14 | ΔTm (Quadruplex DNA [7]): -2.5 °C; ΔTm (Quadruplex DNA [8]): 4.9 °C; ΔTm (Quadruplex DNA [9]): 5.2 °C; ΔTm (Quadruplex DNA [10]): 3.2 °C
CN(C)CCCNc1cc2c3c(c(NCCCCCCCNc4cc5c6c(ccc7c6c4C(=O)N(CCCN(C)C)C7=O)C(=O)N(CCCN(C)C)C5=O)cc4c3c1C(=O)N(CCCN(C)C)C4=O)C(=O)N(CCCN(C)C)C2=O | > 30 | 18.3 | 7.8 | < 0.66 | > 100 | 8500 | 66.3 | 
CN(C)CCCN1C(=O)c2ccc3c4c(c(NCCCO)cc(c24)C1=O)C(=O)N(CCCN(C)C)C3=O | 12 | 5 | 87.7 | 2 | 2.49 | 57 | 5 | 
CCCNC(=O)c1ccc2[nH]c3c([nH]c2c1)c1c(=O)n(CCCN(C)C)c(=O)c2ccc4c(=O)n(CCCN(C)C)c(=O)c3c4c21 | > 30 | > 30 | 422 | 0.12 | 0.31 | 0.09 | 0.038 | ΔTm (Quadruplex DNA [7]): 14.8 °C; ΔTm (Quadruplex DNA [8]): > 30 °C; ΔTm (Quadruplex DNA [9]): 22.7 °C; Drug uptake [11]: Active; IC50 (Trypanosoma brucei [12]): 11 pM; Drug uptake [13]: 20%; Drug uptake [14]: Not Active; Drug uptake [15]: Active; Drug uptake [16]: Not Active; ΔTm (Quadruplex DNA [10]): 26 °C; selectivity ratio at 72 h [17]: 3450; Drug uptake [18]: Active; Drug uptake [19]: Active
O=C1c2cc(NCCOCCO)c3c4c(cc(NCCOCCO)c(c24)C(=O)N1CCOCCO)C(=O)N(CCOCCO)C3=O | 3.5 | 0.3 | > 2.3 |  | > 100 | 42700 | > 100 | 
O=C1c2ccc3c4c(c(NCCOCCO)cc(c24)C(=O)N1CCOCCO)C(=O)N(CCOCCO)C3=O | 2.9 | -1.4 | > 10.5 | > 6.98 | 14.3 | 9500 | > 100 | 
CN(C)CCCNc1cc2c3c(c(NCCCN(C)C)cc4c3c1C(=O)N(CCCN(C)C)C4=O)C(=O)N(CCCN(C)C)C2=O | > 30 | > 30 | 38.9 | 0.18 | 11.8 | 54 | 2.1 | 
O=c1c2ccc3c(=O)n(CCOCCO)c(=O)c4c5[nH]c6ccccc6[nH]c5c(c(=O)n1CCOCCO)c2c34 | 2.1 | -2.2 | 6.2 | < 0.018 | > 100 | 290 | 1.8 | IC50 (Trypanosoma brucei [12]): 130000 pM; selectivity ratio at 72 h [17]: 13.8
CN(C)CCCN1C(=O)c2ccc3c4c(c(NCCCCCCCNc5cc6c7c(ccc8c7c5C(=O)N(CCCN(C)C)C8=O)C(=O)N(CCCN(C)C)C6=O)cc(c24)C1=O)C(=O)N(CCCN(C)C)C3=O | 15 | > 30 | 4 | 0.002 | 2.59 | 15 | 0.062 | 
CN(C)CCCN1C(=O)c2ccc3c4c(c(NCc5cn([C@@H]6O[C@H](CO)[C@@H](O)[C@H](O)[C@H]6O)nn5)cc(c24)C1=O)C(=O)N(CCCN(C)C)C3=O | 11 | 10 | 47.9 | 4.7 |  |  |  | 
CN(C)CCCNc1cc2c3c(c(N(C)C)cc4c3c1C(=O)N(CCCN(C)C)C4=O)C(=O)N(CCCN(C)C)C2=O | 3.6 | 1.9 | 367 | 2.6 | 2.96 | 21 | 7.7 | ΔTm (Quadruplex DNA [7]): -1.4 °C; ΔTm (Quadruplex DNA [8]): 8.9 °C; ΔTm (Quadruplex DNA [9]): 2.4 °C; Drug uptake [13]: 0%; ΔTm (Quadruplex DNA [10]): 2.7 °C
N=C(N)c1ccc(OCCCCCOc2ccc(C(=N)N)cc2)cc1 [PENTAMIDINE] |  |  |  |  |  |  |  | IC50 (Trypanosoma brucei [20]): 0.0002 µM
CN(C)CCCn1c(=O)c2ccc3c(=O)n(CCCN(C)C)c(=O)c4c5[nH]c6ccccc6[nH]c5c(c1=O)c2c34 | > 30 | 8.5 | 88 | 11.5 | 0.002 | 0.26 | 0.023 | ΔTm (Quadruplex DNA [7]): 3 °C; ΔTm (Quadruplex DNA [8]): 6.7 °C; ΔTm (Quadruplex DNA [9]): 25.9 °C; IC50 (Trypanosoma brucei [12]): 70 pM; Drug uptake [13]: 20%; ΔTm (Quadruplex DNA [10]): 23 °C; selectivity ratio at 72 h [17]: 328; Drug uptake [19]: Active
CCCNc1cc2c3c(ccc4c3c1C(=O)N(CCCN(C)C)C4=O)C(=O)N(CCCN(C)C)C2=O | 12 | > 30 | 40 | 10.6 |  |  |  | 
COCCOCCNc1cc2c3c(ccc4c3c1C(=O)N(CCCN(C)C)C4=O)C(=O)N(CCCN(C)C)C2=O | 9.7 | 4.4 | 80.6 | 1.1 | 4.42 | 61 | 5 | 
CN(C)CCCNc1cc2c3c(ccc4c3c1C(=O)N(CCCN(C)C)C4=O)C(=O)N(CCCN(C)C)C2=O | 19 | 9.6 | > 4.6 |  | > 100 | 21500 | > 100 | 
O=C1c2ccc3c4c(ccc(c24)C(=O)N1CCOCCO)C(=O)N(CCOCCO)C3=O | 1.3 | -2.2 | 5.8 | 3.85 | 3.76 | 2500 | 14.5 | 

Source: ChEMBL document CHEMBL5500418, “Structure-Activity Study on Substituted, Core-Extended, and Dyad Naphthalene Diimide G-Quadruplex Ligands Leading to Potent Antitrypanosomal Agents” (J Med Chem, 2024)
